Assay results from patent US7906549B2, “Aminocarboxylic acid derivative and medicinal use thereof” (Ono Pharmaceutical Co., Ltd., priority 2004, dated 2011).
Where a name gives a salt, the structure may show the parent alone.

Experiments:
lymphocyte in blood = test: Counting the number of lymphocyte in blood after oral administration; format: in vivo, male BALB/c mice or male Sprague-Dawley rats; conditions: Mus musculus, 24 hours after the administration, read-out: ED50 (dose required for lowering the blood cell count to 50%)
Protocol: Test compounds were orally administered to male BALB/c mice or male Sprague-Dawley rats (Charles River Laboratories, Japan, Inc., 6-week-old at the time of use). 4 to 72 hours after the administration, the blood was collected from the aorta abdominalis under ether anesthesia. The number of the total leucocyte count, the lymphocyte count, the neutrophil count, the erythrocyte count, the platelet count in blood and the hematocrit value were measured with a multipurpose automatic blood cell counter (SF-3000, manufactured by Sysmex Corporation). Evaluation was made by setting the average blood cell count in a vehicle-administered group (vehicle group) as 100% and calculating the percentage of vehicle from the average blood cell count of each test compound-administered group.

Human EDG-1 = molecular target: T1, Human EDG-1 (Homo sapiens, UniProt P21453); test: Agonistic activity against EDG by monitoring changes in intracellular calcium ion [Ca^2+]i concentration; format: cell-based; conditions: Human EDG-1 overexpressing CHO cells; read-out: EC50 (increase in intracellular calcium ion concentration)
T1 construct: expressed in transfected cells; host or cells: CHO cells
T1 sequence (P21453 whole entry): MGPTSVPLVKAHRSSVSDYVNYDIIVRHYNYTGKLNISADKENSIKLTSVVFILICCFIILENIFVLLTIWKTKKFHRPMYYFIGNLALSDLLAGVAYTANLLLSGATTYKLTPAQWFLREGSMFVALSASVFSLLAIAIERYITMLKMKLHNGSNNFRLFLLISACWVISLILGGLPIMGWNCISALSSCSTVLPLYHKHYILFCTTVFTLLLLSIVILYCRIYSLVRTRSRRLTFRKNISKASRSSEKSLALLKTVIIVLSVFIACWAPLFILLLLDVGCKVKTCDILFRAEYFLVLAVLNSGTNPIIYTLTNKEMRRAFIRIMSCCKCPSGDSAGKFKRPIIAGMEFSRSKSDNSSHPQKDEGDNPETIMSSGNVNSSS
Protocol: Human EDG-1, EDG-3, EDG-5, or EDG-8 gene overexpressing CHO cells were cultured in Ham's F12 medium (manufactured by GibcoBRL) containing 10% FBS (fetal bovine serum), penicillin/streptomycin, and blasticidin (5 μg/ml). The cultured cells were incubated in a 5 μM Fura2-AM solution (Ham's F12 medium containing 10% of FBS, 20 mM HEPES buffer (pH7.4), and 2.5 mM probenecid) at 37° C. for 60 minutes. After washing once with Hanks solution containing 20 mM HEPES buffer (pH7.4) and 2.5 mM probenecid, the plate was soaked in the same solution. Then, the plate was set on a fluorescent drug screening system (FDSS 6000; Hamamatsu Photonics K. K.) and the intracellular calcium ion concentration was measured without stimulation for 30 seconds. A test compound (final concentration: 1 nM to 10 μM, dimethylsulfoxide (DMSO) solution) was added and S1P (final concentration: 100 nM) was added 5 minutes thereafter. Then, the increase in the intracellular calcium ion concentration was measured before and after the addition of S1P at intervals of 3 seconds (excitation wavelength: 340 nm and 380 nm, fluorescence wavelength: 500 nm).
The agonistic activity of the compound against each EDG was determined by using the peak value due to S1P-stimulation in a well containing DMSO as a substitute for the evaluated compound as a control value (A), comparing the value […] the addition of the evaluated compound with the increased value (B) in the fluorescent ratio after the addition, and calculating the increase ratio (%) in the intracellular calcium ion [Ca^2+]i concentration as: increase ratio (%)=(B/A)×100. Increase ratios of the compound at individual concentrations were determined and the EC50 value was calculated.

[1] = test system: experimental allergic encephalomyelitis; test: Experimental allergic encephalomyelitis (EAE) model, Case 1: administration from the day of sensitization; format: in vivo, Female LEW/CrlCrlj rats; conditions: from the day of sensitization to Day 19
Protocol: (§1) Killed Mycobacterium tuberculosis (M. tuberculosis H37 Ra, Difco, Cat No. 231141) was suspended in distilled water for injection to dissolve MBP (Myelin basic protein, SIGMA, Cat No. M-2295) (Killed Mycobacteriumtuberculosis: 1000 μg/mL, MBP: 60 μg/mL). This solution was mixed with an equivalent amount of FCA (Freund Complete Adjuvant, CHEMICON, Cat No. AR001) to thereby prepare an emulsion. Female LEW/CrlCrlj rats (Charles River Laboratories, Japan, Inc., 6-week-old at the time of purchase, 7-week-old at the time of sensitization) were antigen-sensitized by a single subcutaneous injection (0.1 mL/rat) of the emulsion in the right foot pad under slight ether anesthesia, thereby inducing the symptoms of experimental allergic encephalomyelitis. The day of sensitization was defined as Day 0.
The EAE symptoms of the rats were observed every day from Day 8 to Day 20, and were evaluated based on the following criteria: Tail relaxation: 1 point, Incomplete paralysis of hind legs: 1 point, Complete paralysis of hind legs: another 1 point, and Incontinentia: 1 point. The maximum score was 4 points. Death was 5 points.
Using a 0.5% MC solution (0.5 w/v % Methyl Cellulose 400cP Solution, Wako Pure Chemical Industries, Ltd., Cat No. 133-14255) as a vehicle, the test compound was forcibly administered orally in an amount of 5 mL/kg once a day from […] the day of sensitization to Day 19. To a control group, the same amount of 0.5% MC solution was forcibly administered orally once a day for the same period. The body weight was measured every day from Day 0 and the dose was determined based on the body weight of each day.

[2] = test system: experimental allergic encephalomyelitis; test: Experimental allergic encephalomyelitis (EAE) model, Case 2: administration from immediately before development of symptoms; format: in vivo, Female LEW/CrlCrlj rats; conditions: oral dose of 0.3 mg/kg once a day, from Day 9 to Day 19
Protocol: as §1, with “Mycobacterium tuberculosis:” for “Mycobacteriumtuberculosis:”, “The day of sensitization was defined as Day 0.” left out
The EAE symptoms of the rats were observed every day from Day 7 to Day 20, and evaluated based on the following criteria: Tail relaxation: 1 point, Incomplete paralysis of hind legs: 1 point, Complete paralysis of hind legs: another 1 point, and Incontinentia: 1 point. […]
Using 0.5% MC solution (0.5 w/v % Methyl Cellulose 400cP Solution, Wako Pure Chemical Industries, Ltd., Cat No. 133-14255) as a vehicle, the test compound was forcibly administered orally in an amount of 5 mL/kg once a day from Day 9 […] sensitization to Day 19. […] The body weight was measured every day from Day 9 and the dose was determined based on the body weight of each day.

heart rate = test: Evaluation of cardiotoxicity (bradycardia); format: in vivo; conditions: rabbits, intravenously administered, dose of 0.01 mg/kg
From the text: A catheter was inserted into the jugular vein and carotid artery (or the femoral vein and femoral artery) of mammals (e.g., SD rat and a rabbit). The tip of the arterial cannula was connected to a pressure transducer (DX-100, manufactured by NIHON KOHDEN CORP.), thereby measuring blood pressure through a strain pressure amplifier (AP-641G, manufactured by NIHON KOHDEN CORP.) and measuring heart rate through an instantaneous heart rate measuring unit (AT-601G, manufactured by NIHON KOHDEN CORP.), respectively. Alternatively, heart rate was measured with an electrocardiogram. Under anesthesia or under awareness after arousal was induced, the test compound was administered intravenously or administered orally. Then, changes in blood pressure and heart rate were measured.

[3] = oral dose of 0.3 mg/kg once a day

Compound | EC50 (Human EDG-1) [nM] | melting point [°C] | further results
O=C(O)C1CN(CC2=C(Cl)c3ccc(OCCCC4CCCCC4)cc3CC2)C1 [Example 27-7, 1-{[1-chloro-6-(3-cyclohexylpropoxy)-3,4-dihydronaphthalen-2-yl]methyl}azetidine-3-carboxylic acid] | 0.7 | – | ED50 (lymphocyte in blood): 1.6 mg/kg
CC1=C(CN2CC(C(=O)O)C2)CCc2cc(OC[C@@H](C)Cc3ccc(F)cc3)ccc21 [Example 7-4, 1-[(6-{[(2S)-3-(4-fluorophenyl)-2-methylpropyl]oxy}-1-methyl-3,4-dihydro-2-naphthalenyl)methyl]-3-azetidinecarboxylic acid] | – | 142.5 to 143.6 | –
CCCc1ccc(COc2ccc3c(c2)CCC(CN2CC(C(=O)O)C2)=C3Cl)c(OC)c1 [Example 37-6, 1-({1-chloro-6-[(2-methoxy-4-propylbenzyl)oxy]-3,4-dihydro-2-naphthalenyl}methyl)-3-azetidinecarboxylic acid] | 0.7 | – | –
CC1=C(CN2CC(C(=O)O)C2)CCc2cc(OCc3ccc(C(F)(F)F)cc3C(F)(F)F)ccc21 [Example 37-5, 1-[(6-{[2,4-bis(trifluoromethyl)benzyl]oxy}-1-methyl-3,4-dihydro-2-naphthalenyl)methyl]-3-azetidinecarboxylic acid] | – | – | inhibition of the development of EAE symptoms [1, 3]: almost completely inhibited; inhibition of the development of EAE symptoms [2]: had the effect of inhibiting the development of symptoms
CC1=C(CN2CC(C(=O)O)C2)CCc2cc(OC[C@@H](C)Cc3ccc(Cl)cc3)ccc21 [Example 7-10, 1-[(6-{[(2S)-3-(4-chlorophenyl)-2-methylpropyl]oxy}-1-methyl-3,4-dihydro-2-naphthalenyl)methyl]-3-azetidinecarboxylic acid] | – | 148.6 to 148.9 | –
CC1=C(CN2CC(C(=O)O)C2)CCc2cc(OCCCc3ccc(Cl)cc3)ccc21 [Example 7-1, 1-({6-[3-(4-chlorophenyl)propoxy]-1-methyl-3,4-dihydro-2-naphthalenyl}methyl)-3-azetidinecarboxylic acid] | – | 165.4 to 166.9 | –
O=C(O)CCN1CC=C(c2ccc(OCCCc3ccc(Cl)cc3)cc2)CC1 [Example 29-1, 3-[4-{4-[3-(4-chlorophenyl)propoxy]phenyl}-3,6-dihydropyridin-1(2H)-yl]propanoic acid trifluoroacetate] | 133 | – | –
O=C(O)CCN1CCc2c([nH]c3cc(OCCCc4ccccc4)ccc23)C1 [Example 18, 3-[7-(3-phenylpropoxy)-1,3,4,9-tetrahydro-2H-β-carbolin-2-yl]propanoic acid trifluoroacetate] | 662 | – | –
CCCc1ccc(COc2ccc3c(c2)CCC(CN2CC(C(=O)O)C2)=C3C)c(OC)c1 [Example 37, 1-({6-[(2-methoxy-4-propylbenzyl)oxy]-1-methyl-3,4-dihydro-2-naphthalenyl}methyl)-3-azetidinecarboxylic acid] | 1 | – | ED50 (lymphocyte in blood): 0.029 mg/kg; inhibition of the development of EAE symptoms ([1]; oral dose of 0.1 mg/kg once a day): almost completely inhibited; inhibition of the development of EAE symptoms [1, 3]: completely inhibited; inhibition of the development of EAE symptoms [2]: almost completely inhibited; decrease of heart rate (heart rate): ≤ 20%
CC(C)Cc1ccc(-c2nc(-c3ccc4c(c3)CCN(CCC(=O)O)C4)no2)cc1 [Example 13-4, 3-[6-[5-(4-isobutylphenyl)-1,2,4-oxadiazol-3-yl]-3,4-dihydro-2(1H)-isoquinolinyl]propanoic acid trifluoroacetate] | 41 | – | –
